What all share (type): biochemical
One assay has as its target T1, FGFR4 (Homo sapiens, UniProt P22455).
T1 construct: FGFR4's cytoplasmic domain [460-802 (terminal) amino acids]; purchased Carna 08-136
The assay is described as follows: FGFR4 kinase activity inhibition assay (LanthaScreen TR-FRET). In outline: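 GST-tagged cytoplasmic domains (FGFR2 aa 399-821; FGFR4 aa 460-802) were preincubated 10 min at 23 °C with compound (top 1 µM, threefold dilutions). Then 28 nM fluorescein-poly GT and 28 µM ATP were added for 30 min at 23 °C in HEPES pH 7.5 buffer. Tb-PY20 TR-FRET 520/495 ratio gave % inhibition versus DMSO and no-enzyme controls.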
A general note: In TR-FRET formats the signal depends on donor and acceptor labels being close together.

Another assay concerns the target T2, FGFR3 (Homo sapiens, UniProt P22607).
T2 construct: FGFR3's cytoplasmic domain [436-806 (terminal) amino acids]; purchased Carna 08-135
Briefly: FGFR3 kinase activity inhibition assay (LanthaScreen TR-FRET). The note with it: for Selectivity (X) FGFR1/FGFR3: ratio of IC50 FGFR1/FGFR3, selectivity towards FGFR3; for Selectivity (X) FGFR2/FGFR3: ratio of IC50 FGFR2/FGFR3, selectivity towards FGFR3; for Selectivity (X) FGFR4/FGFR3: ratio of IC50 FGFR4/FGFR3, selectivity towards FGFR3. The procedure, abridged: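 Read-out is TR-FRET, with the 520 nm/495 nm emission ratio normalised to DMSO (max) and enzyme-free (min) controls. Enzyme was the FGFR3 cytoplasmic domain, residues 436-806. EDTA (10 mM) stopped the reaction, followed by 60 min at 22 °C before reading.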

A further assay addresses T3, FGFR1 (Homo sapiens, UniProt P11362).
T3 construct: cytoplasmic domain [398-822 (terminal) amino acids]; purchased Carna 08-133
Briefly: FGFR1 kinase activity inhibition assay (LanthaScreen TR-FRET). In outline: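 Emission ratio 520 nm/495 nm by TR-FRET after stopping reaction with 10 mM EDTA and 60 min incubation at 22°C. Inhibition normalized between no-enzyme (min) and DMSO (max) controls, then fitted to a four-parameter curve (Top, Bottom, HillSlope).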

The next assay has as its target T4, FGFR2 (Homo sapiens, UniProt P21802).
T4 construct: FGFR2's cytoplasmic domain [399-821 (terminal) amino acids]; purchased Carna 08-134
Briefly: FGFR2 kinase activity inhibition assay (LanthaScreen TR-FRET). The procedure, abridged:
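GST-fused FGFR2 cytoplasmic domain (aa 399-821) was run as in the FGFR1 protocol: preincubated 10 min at 23 °C with compound (3-fold series from 1 µM) in 50 mM HEPES pH 7.5, 10 mM MgCl2, 4 mM DTT, 1% DMSO. A 2× mix of 28 nM fluorescein-poly GT/28 µM ATP then reacted 30 min. Tb-PY20/EDTA quench preceded the TR-FRET 520/495 read.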

[1] abbreviates: FGFR4 kinase, TR-FRET, read-out: IC50 (nM) FGFR4.
Where [2] appears, read: FGFR3 kinase, TR-FRET, read-out: IC50 (nM) FGFR3.
Setting [3] is: FGFR1 kinase, TR-FRET, read-out: IC50 (nM) FGFR1.
Where [4] appears, read: FGFR2 kinase, TR-FRET, read-out: IC50 (nM) FGFR2.

As usually defined, the IC50 is the point on the concentration scale where inhibition reaches its midpoint.

Read-outs that look alike come from different tables or passages of the source. Bounds are passed on as bounds.

T4 sequence (P21802 399-821): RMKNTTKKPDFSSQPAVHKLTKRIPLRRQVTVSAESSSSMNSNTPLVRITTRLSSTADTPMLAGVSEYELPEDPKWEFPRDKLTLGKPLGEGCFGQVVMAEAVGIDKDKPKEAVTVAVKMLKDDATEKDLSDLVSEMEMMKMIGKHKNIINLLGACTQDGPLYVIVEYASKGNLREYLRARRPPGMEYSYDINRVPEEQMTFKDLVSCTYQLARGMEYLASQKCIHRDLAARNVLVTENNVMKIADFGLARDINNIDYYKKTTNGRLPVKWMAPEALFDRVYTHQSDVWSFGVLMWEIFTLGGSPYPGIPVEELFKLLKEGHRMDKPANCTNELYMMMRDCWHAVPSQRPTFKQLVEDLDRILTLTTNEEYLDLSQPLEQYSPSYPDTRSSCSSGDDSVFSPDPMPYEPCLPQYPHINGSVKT
T1 sequence (P22455 460-802): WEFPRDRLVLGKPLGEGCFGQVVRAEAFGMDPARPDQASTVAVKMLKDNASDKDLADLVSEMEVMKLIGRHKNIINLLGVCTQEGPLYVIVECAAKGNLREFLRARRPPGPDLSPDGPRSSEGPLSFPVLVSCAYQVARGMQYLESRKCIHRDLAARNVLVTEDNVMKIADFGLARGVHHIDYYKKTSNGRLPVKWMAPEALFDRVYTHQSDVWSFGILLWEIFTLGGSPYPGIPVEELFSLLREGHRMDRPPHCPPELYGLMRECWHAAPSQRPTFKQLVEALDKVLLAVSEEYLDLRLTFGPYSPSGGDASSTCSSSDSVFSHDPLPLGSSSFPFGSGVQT
T2 sequence (P22607 436-806): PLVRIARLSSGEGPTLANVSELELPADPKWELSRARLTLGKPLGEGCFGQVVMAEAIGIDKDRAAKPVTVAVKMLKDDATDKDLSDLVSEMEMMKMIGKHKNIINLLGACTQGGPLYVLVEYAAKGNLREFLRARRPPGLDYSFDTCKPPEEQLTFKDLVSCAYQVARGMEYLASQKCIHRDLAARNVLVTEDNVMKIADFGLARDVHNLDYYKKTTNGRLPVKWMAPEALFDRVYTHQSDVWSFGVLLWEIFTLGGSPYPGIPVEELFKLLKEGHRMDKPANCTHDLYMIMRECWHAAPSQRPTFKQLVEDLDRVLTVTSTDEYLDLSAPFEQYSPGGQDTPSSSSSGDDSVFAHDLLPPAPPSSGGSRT
T3 sequence (P11362 398-822): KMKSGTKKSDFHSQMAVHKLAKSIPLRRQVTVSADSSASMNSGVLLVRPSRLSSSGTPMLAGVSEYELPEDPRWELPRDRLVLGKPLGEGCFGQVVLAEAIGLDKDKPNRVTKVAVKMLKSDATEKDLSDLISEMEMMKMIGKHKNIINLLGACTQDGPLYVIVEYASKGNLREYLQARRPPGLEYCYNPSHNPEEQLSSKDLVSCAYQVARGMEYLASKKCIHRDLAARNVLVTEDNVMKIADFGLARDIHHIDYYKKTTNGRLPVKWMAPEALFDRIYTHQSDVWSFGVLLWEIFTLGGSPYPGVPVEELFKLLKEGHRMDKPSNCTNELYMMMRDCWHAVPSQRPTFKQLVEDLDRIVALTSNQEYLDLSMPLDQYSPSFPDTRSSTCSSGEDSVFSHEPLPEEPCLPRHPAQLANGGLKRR

On to `CC(Oc1ccc2[nH]nc(-c3cnn(C)c3)c2c1)c1cccc2ncccc12` (centres unmarked) [Example 88, 5-(1-((3-(1-methyl-1H-pyrazol-4-yl)-1H-indazol-5-yl)oxy)ethyl)quin oline], for which the IC50 is 10 to 100 nM at FGFR4 (setting [1]), 1 to 10 nM at FGFR3 (setting [2]), 10 to 100 nM on FGFR1 (setting [3]) and 1 to 10 nM on FGFR2 (setting [4]). For the same compound, the “Selectivity (X) FGFR1/FGFR3” value at FGFR3 was “A (A represents 1 ≤ multiple X<20)”. Besides, the “Selectivity (X) FGFR2/FGFR3” value at FGFR3 was “A (A represents 1 ≤ multiple X<20)”. Also, at FGFR3, the “Selectivity (X) FGFR4/FGFR3” value is listed as “C (C represents 50 ≤ multiple X<100)”.

As to `CC(Oc1ccc2[nH]nc(-c3cnn(C)c3)c2c1)c1cccc2nccnc12` (centres unmarked) [Example 92, 5-(1-((3-(1-methyl-1H-pyrazol-4-yl)-1H-indazol-5-yl)oxy)ethyl)quin oxaline], the IC50 on FGFR4 (setting [1]) was 1 to 10 nM; on FGFR3 (setting [2]), less than 1 nM; on FGFR1 (setting [3]), 1 to 10 nM; at FGFR2 (setting [4]) it was 1 to 10 nM. In addition, on FGFR3, the “Selectivity (X) FGFR1/FGFR3” value is “A (A represents 1 ≤ multiple X<20)”. For the same compound, the “Selectivity (X) FGFR2/FGFR3” value on FGFR3 is “A (A represents 1 ≤ multiple X<20)”. The “Selectivity (X) FGFR4/FGFR3” value on FGFR3 is “A (A represents 1 ≤ multiple X<20)”.

Take `Cc1ccc2ncccc2c1C(C)Oc1ccc2[nH]nc(-c3cnn(C)c3)c2c1` (centres unmarked) [Example 95, 6-methyl-5-(1-((3-(1-methyl-1H-pyrazol-4-yl)-1H-indazol-5-yl)oxy)ethyl)quinolinee]: the IC50 on FGFR4 was 10 to 100 nM; on FGFR3, 1 to 10 nM; against FGFR1, 10 to 100 nM; against FGFR2 it was 1 to 10 nM. Also, on FGFR3, the “Selectivity (X) FGFR1/FGFR3” value was “C (C represents 50 ≤ multiple X<100)”. Moreover, on FGFR3, the “Selectivity (X) FGFR2/FGFR3” value is reported as “A (A represents 1 ≤ multiple X<20)”. In addition, the “Selectivity (X) FGFR4/FGFR3” value on FGFR3 was “C (C represents 50 ≤ multiple X<100)”.

For `CC(Oc1ccc2[nH]nc(-c3cnn(C)c3)c2c1)c1c(C(F)F)ccc2ncccc12` (centres unmarked) [Example 127, 6-(difluoromethyl)-5-(1-((3-(1-methyl-1H-pyrazol-4-yl)-1H-indazol-5-yl)oxy)ethyl)quinoline], the IC50 at FGFR4 (setting [1]) is greater than 100 nM; on FGFR3 (setting [2]), less than 1 nM; on FGFR1 (setting [3]), greater than 100 nM; on FGFR2 (setting [4]) it was 1 to 10 nM. Further, the “Selectivity (X) FGFR1/FGFR3” value at FGFR3 is given as “C (C represents 50 ≤ multiple X<100)”. The “Selectivity (X) FGFR2/FGFR3” value at FGFR3 was “A (A represents 1 ≤ multiple X<20)”. The “Selectivity (X) FGFR4/FGFR3” value on FGFR3 was “C (C represents 50 ≤ multiple X<100)”.

Consider `CC(Oc1ccc2[nH]nc(-c3cnn(C)c3)c2c1)c1cc(Cl)cc2nccnc12` (centres unmarked) [Example 136, 7-chloro-5-(1-((3-(1-methyl-1H-pyrazol-4-yl)-1H-indazol-5-yl)oxy)ethyl)qu inoxaline], for which the IC50 at FGFR4 (setting [1]) is 10 to 100 nM; at FGFR3 (setting [2]) it was less than 1 nM; on FGFR1 (setting [3]) it was 10 to 100 nM; at FGFR2 (setting [4]) it was 1 to 10 nM. In addition, the “Selectivity (X) FGFR1/FGFR3” value on FGFR3 is on record as “B (B represents 20 ≤ multiple X<50)”. Moreover, on FGFR3, the “Selectivity (X) FGFR2/FGFR3” value is on record as “A (A represents 1 ≤ multiple X<20)”. Besides, the “Selectivity (X) FGFR4/FGFR3” value on FGFR3 is recorded as “C (C represents 50 ≤ multiple X<100)”.

`Cc1cc2nccnc2c(C(C)Oc2ccc3[nH]nc(-c4cnn(C)c4)c3c2)n1` (centres unmarked) [Example 183, 7-methyl-5-(1-((3-(1-methyl-1H-pyrazol-4-yl)-1H-indazol-5-yl)oxy)ethyl)pyridino [3,4-b]pyrazine]: the IC50 on FGFR4 (setting [1]) is 10 to 100 nM; on FGFR3 (setting [2]), less than 1 nM; on FGFR1 (setting [3]) it was 10 to 100 nM; on FGFR2 (setting [4]) it was 1 to 10 nM. Further, the “Selectivity (X) FGFR1/FGFR3” value at FGFR3 is “B (B represents 20 ≤ multiple X<50)”. In addition, the “Selectivity (X) FGFR2/FGFR3” value on FGFR3 is on record as “A (A represents 1 ≤ multiple X<20)”. Further, the “Selectivity (X) FGFR4/FGFR3” value on FGFR3 is reported as “B (B represents 20 ≤ multiple X<50)”.

Take `COCC(=O)N1CC(n2cc(-c3n[nH]c4ccc(OC(C)c5cccc6nccnc56)cc34)cn2)C1` (centres unmarked) [Example 188, 2-methoxy-1-(3-(4-(5-(1-(quinoxalin-5-yl)ethoxy)-1H-indazol-3-yl)-1H-pyrazol-1-yl)azetidin-1-yl)ethan-1-one]: the IC50 on FGFR4 (setting [1]) is 10 to 100 nM; on FGFR3 (setting [2]), less than 1 nM; on FGFR1 (setting [3]), 10 to 100 nM; at FGFR2 (setting [4]) it was 1 to 10 nM. For the same compound, at FGFR3, the “Selectivity (X) FGFR1/FGFR3” value is on record as “B (B represents 20 ≤ multiple X<50)”. Also, the “Selectivity (X) FGFR2/FGFR3” value at FGFR3 is recorded as “A (A represents 1 ≤ multiple X<20)”. Further, the “Selectivity (X) FGFR4/FGFR3” value at FGFR3 is “B (B represents 20 ≤ multiple X<50)”.

As for `CC(Oc1ccc2[nH]nc(-c3cnn(C4CN(C(=O)C(C)(C)O)C4)c3)c2c1)c1cccc2nccnc12` (centres unmarked) [Example 190, 2-hydroxy-2-methyl-1-(3-(4-(5-(1-(quinoxalin-5-yl)ethoxy)-1H-indazol-3-yl)-1H-pyrazol-1-yl)azetidin-1-yl)propan-1-one], the IC50 at FGFR4 (setting [1]) was 10 to 100 nM; on FGFR3 (setting [2]), less than 1 nM; at FGFR1 (setting [3]), 10 to 100 nM; on FGFR2 (setting [4]) it was 1 to 10 nM. The “Selectivity (X) FGFR1/FGFR3” value at FGFR3 is reported as “B (B represents 20 ≤ multiple X<50)”. For the same compound, the “Selectivity (X) FGFR2/FGFR3” value on FGFR3 was “A (A represents 1 ≤ multiple X<20)”. Also, the “Selectivity (X) FGFR4/FGFR3” value on FGFR3 is listed as “B (B represents 20 ≤ multiple X<50)”.

On to `CC(=O)N1CC(n2cc(-c3n[nH]c4ccc(OC(C)c5cccc6nccnc56)cc34)cn2)C1` (centres unmarked) [Example 218, 1-(3-(4-(5-(1-(quinoxalin-5-yl)ethoxy)-1H-indazol-3-yl)-1H-pyrazol-1-yl)azetidin-1-yl)ethan-1-one], for which the IC50 is 10 to 100 nM on FGFR4 (setting [1]), less than 1 nM on FGFR3 (setting [2]), 10 to 100 nM on FGFR1 (setting [3]) and 1 to 10 nM on FGFR2 (setting [4]). The “Selectivity (X) FGFR1/FGFR3” value at FGFR3 is “B (B represents 20 ≤ multiple X<50)”. Besides, the “Selectivity (X) FGFR2/FGFR3” value on FGFR3 is recorded as “A (A represents 1 ≤ multiple X<20)”. For the same compound, the “Selectivity (X) FGFR4/FGFR3” value at FGFR3 was “B (B represents 20 ≤ multiple X<50)”.

With `CC(Oc1ccc2[nH]nc(-c3cnn(C)c3)c2c1)c1nc(C(F)F)cc2nccnc12` (centres unmarked) [Example 236, 7-(difluoromethyl)-5-(1-((3-(1-methyl-1H-pyrazol-4-yl)-1H-indazol-5-yl)oxy)ethyl)pyridino[3,4-b]pyrazine], the IC50 on FGFR4 (setting [1]) is 10 to 100 nM; at FGFR3 (setting [2]), less than 1 nM; at FGFR1 (setting [3]), 1 to 10 nM; at FGFR2 (setting [4]), 1 to 10 nM. Moreover, the “Selectivity (X) FGFR1/FGFR3” value at FGFR3 is “A (A represents 1 ≤ multiple X<20)”. The “Selectivity (X) FGFR2/FGFR3” value on FGFR3 was “A (A represents 1 ≤ multiple X<20)”. Besides, at FGFR3, the “Selectivity (X) FGFR4/FGFR3” value is on record as “C (C represents 50 ≤ multiple X<100)”.

Regarding `[2H]C([2H])([2H])c1cc2nccnc2c(C(C)Oc2ccc3[nH]nc(-c4cnn(C)c4)c3c2)n1` (centres unmarked) [Example 241], the IC50 on FGFR4 is 1 to 10 nM; against FGFR3 it was less than 1 nM; against FGFR1, 1 to 10 nM; against FGFR2, less than 1 nM. For the same compound, the “Selectivity (X) FGFR1/FGFR3” value at FGFR3 was “B (B represents 20 ≤ multiple X<50)”. On FGFR3, the “Selectivity (X) FGFR2/FGFR3” value was “A (A represents 1 ≤ multiple X<20)”. Further, the “Selectivity (X) FGFR4/FGFR3” value at FGFR3 was “A (A represents 1 ≤ multiple X<20)”.
